For one experiment, the system named is long chain DNA (pUC-I′). As to the kind of experiment: Long chain DNA (pUC-I′) alkylation, 24 hours, sequence gel electrophoresis. It is filed as biochemical. The note with it: for sequence-specific alkylation of long chain DNA: 100 nM to 12.5 nM, 23° C. As to the method: The reaction of the hairpin polyamides 1 and 12 to 14 with a DNA was investigated using a long chain DNA (pUC-I′). The alkylation reaction was continued for 24 hours and a sequence gel electrophoresis was conducted for the analysis.
On the other hand, the alkylation of ImPyPy-γ-ImPyPyDu86 (12) was not observed at 100 nM to 12.5 nM (lanes 5 to 8). […] In the description made above or below, a -γ- means a γ-aminobutyric acid residue.
A DNA fragment (pUC-I′) was synthesized by a PCR method using pUC 18 as a template together with a 5′-texas red-labeled 20 base pair primer: 5′-[…]-3′ (pUC 18 forward, 780-799) and 20 base pair primer: 5′-[…]-3′ (pUC18 reverse, 1459-1478). The resultant DNA fragments were purified by filtration through a Suprec-02, and then examined for the UV absorption to determine the respective concentrations.
To 10 μl in total of 5 mM sodium phosphate buffer (pH7.0), a standard reaction solution containing 10 nM of the DNA fragment (pUC-I′) whose 5′-terminal had been labeled with the texas red, 10% (v/v) DMF and an agent at the concentration indicated in FIG. 1 was added in a microcentrifugation tube (Eppendorf) and allowed to stand for 24 hours at 23° C.
A bovine thymus DNA (1 mM, 1 μL) was added for quenching, and the mixture was shaken for 5 minutes at 90° C. The DNA obtained by centrifugation under reduced pressure was combined with 8 μl of a loading color (solution of *FUGENE* Red in DMF) and dissolved, and then shaken for 20 minutes at 94° C. Immediately after this, the mixture was cooled rapidly to 0° C., and a 2 μl aliquot was subjected to an electrophoresis on a 6% denature polyacrylamide gel using a HITACHI 5500-S DNA sequencer system.

The test system of experiment [1] is DNA oligomers 5′-CAAGTCAGAG/5′-CTCTGACTTG
Nature of the experiment: Short chain DNA (10 bp) alkylation followed by HPLC. It is filed as biochemical. The note with it: for alkylation of DNA oligomer: 150 μM agent and DNA, 23° C. From the text:
In order to clarify the reactive base site in an alkylation site, the alkylation with Polyamides 12, 13 and 14 was investigated by an HPLC using DNA oligomers 5′-CAAGTCAGAG/5′-CTCTGACTTG as substrates. […] Also by decomposing the oligomers by heating and investigating the degradation products of the oligomers by the method which the inventors reported previously (Tetrahedron Lett. 1990, 31, 7197; Tetrahedron Lett. 1993, 34, 2179 and the like), it was proven that the alkylation reaction occurred at the site indicated by an arrow. […] These findings may be attributable to the difference in the reactivity between the Du and the Du86 similarly to the reactivity on the long chain DNA.
A DNA oligomer synthesized by a DNA synthesizer was employed. To 50 μl in total of 50 mM sodium cacodylate buffer (pH7.0), a standard reaction solution containing 150 μM of the double-stranded DNA fragment, 10% (v/v) DMF and each agent of Compounds 1, 12, 13 and 14 (150 μM) was added in a microcentrifugation tube (Eppendorf) and allowed to stand at 23° C.
The advancement of the reaction was ensured by an HPLC using a *CHEMCOBOND* 5-ODS-H column (4.6×150 mm). The HPLC conditions are shown below.
[Linear gradient of 50 mM ammonium formate: 0-50% acetonitrile (0 to 40 min), flow rate: 1.0 mL/min, 254 nm].

For experiment [2], the system named is 39 human cultured cancer cell lines. Nature of the experiment: Cytostatic activity on 39 human cultured cancer cell lines. It is filed as cell-based. Also on record: mean IC50 values: scale not given here. The note with it: for mean IC50 values: mean over 39 human cancer cell lines. From the text: The first is the proportional relationship between the DNA-alkylating ability and the cytostatic activity (FIG. 8). For example, the mean IC50 values of ImPyDu (−4.59), ImPyDu86 (−5.95) and ImPyLDu86 (−8.25) were reduced gradually as the DNA-alkylating ability was increased.
A further interesting result was obtained when comparing the fingerprint patterns indicating the cytostatic activity of the hairpin sequence-specific alkylating agents ImPyPy-γ-ImPyLDu 36 (13) and ImPyPy-γ-ImPyPyLDu 36 (14) (FIG. 9). In general, a high correlation coefficient (r=0.75 to 1.0) is known to be obtained when comparing the fingerprint patterns between the drugs whose action mechanisms are analogous to each other, and in fact an extremely high analogy was observed among a DNA intercalator, doxorubicin, daunorubicin and epirubicin. […] The influence on the cytostatic activity attributable only to the difference in the base sequence-recognizing ability in spite of the analogy in the structure as observed with these Compound 13 and 14 has never been reported, and thus is one of the most important findings.

The test system of a further experiment is long chain DNA (pUC-II). Nature of the experiment: Long chain DNA (pUC-II) alkylation, 24 hours, sequence gel electrophoresis. It is filed as biochemical. The note with it: nM concentrations, 23° C. The method, then: For the purpose of comparing the hairpin polyamides 14, 15 and 16, the DNA alkylation reaction employing a long chain DNA (pUC-II) was conducted.
With this regard, the inventors considered that this problem can be solved by replacing the Du86 with CBI: 1,2,9,9a-tetrahydrocyclopropa[c]benz[e]indole-4-one (22), the method for synthesizing which had already been reported by Boger et al. (J. Org. Chem. 1992, 57, 2873; J. Org. Chem. 1995, 60, 1271 and the like). The benefit of using CBI includes the ability of using commercially available 1,3-dihydroxynaphthalene as a starting material and the ability of providing both enantiomers by an optical resolution. Accordingly, the inventors newly synthesized Compound 23 by replacing the Du86 part of Compound 16 with CBI. Then the inventors evaluated the DNA-alkylating ability using a long chain DNA (pUC-II).
A DNA fragment (pUC-II) was synthesized by a PCR method using pUC 18 as a template together with a 5′-texas red-labeled 21 base pair primer: 5′-[…]-3′ (pUC 18 reverse, 1861-1881) and 18 base pair primer: 5′-TGTAAAACGACGGCCAGT-3′ (pUC18 forward, 378-395). The resultant DNA fragments were purified by filtration through a Suprec-02, and then examined for the UV absorption to determine the respective concentrations.
To 10 μl in total of 5 mM sodium phosphate buffer (pH7.0), a standard reaction solution containing 10 nM of the DNA fragment (pUC-II) whose 5′-terminal had been labeled with the texas red, 10% (v/v) DMF and an agent at the concentration indicated in FIG. 4 was added in a microcentrifugation tube (Eppendorf) and allowed to stand for 24 hours at 23° C.
A bovine thymus DNA (1 mM, 1 μL) was added for quenching, and the mixture was shaken for 5 minutes at 90° C. The DNA obtained by centrifugation under reduced pressure was combined with 8 μl of a loading color (solution of *FUGENE* Red in DMF) and dissolved, and then shaken for 20 minutes at 94° C. […]

A further experiment deals with DNA fragment (pUC-I′). Nature of the experiment: Alkylation of pUC-I′ DNA within a short period (5 minutes, 1 hour, 2 hours), gel electrophoresis. It is filed as biochemical. As to the method:
In order to investigate the difference in the reactivity between Compounds 1 and 13 in more detail, the alkylation within a short period was analyzed.
To 10 μl in total of 5 mM sodium phosphate buffer (pH7.0), a standard reaction solution containing 10 nM of the DNA fragment (pUC-I′) whose 5′-terminal had been labeled with the texas red, 10% (v/v) DMF and an agent at the concentration indicated in FIG. 2 was added in a microcentrifugation tube (Eppendorf) and allowed to stand for 5 minutes, 1 hour and 2 hours, respectively at 23° C.
After each reaction time, a bovine thymus DNA (1 mM, 1 μL) was added for quenching, and the mixture was shaken for 5 minutes at 90° C. The DNA obtained by centrifugation under reduced pressure was combined with 8 μl of a loading color (solution of *FUGENE* Red in DMF) and dissolved, and then shaken for 20 minutes at 94° C. Immediately after this, the mixture was cooled rapidly to 0° C., and a 2 μl aliquot was subjected to an electrophoresis on a 6% denature polyacrylamide gel using a HITACHI 5500-S DNA sequencer system.

Experiment [3] concerns GFP protein expression coding region. As to the kind of experiment: Inhibition of mRNA transcription in GFP coding region with T7 promoter and T7 polymerase. It is filed as biochemical. The note with it: early stage experiment. From the text: The condition of the experiment has not been established yet, and a further detailed analysis of the transcription inhibition mechanism is required. […] It leads to a breakthrough toward the development of a novel knockout gene method.

For experiment [4], the system named is DNA sequence PyG(A/T) CPu. The note with it: cited from earlier work.
The subject of experiment [5] is DNA fragment of 450 base pairs. The note with it: 450 base pair DNA fragment; cited from earlier work.

Entries after “also recorded” stand apart in the source; their conditions may differ.

Results on twelve molecules are retold here after patent US7456294B2, “Hairpin polyamide” (Japan Science and Technology Agency, priority 2002, dated 2008).

On to AcImPyPy-γ-ImPyPyCPI [Compound 12], for which the “sequence-specific alkylation of long chain DNA” value with long chain DNA (pUC-I′) (24 hours) was “not observed”. Also, the “alkylation of long chain DNA at elevated concentration” value in the experiment with long chain DNA (pUC-I′) (10 μM) is “no occurrence of the alkylation”. In addition, the “reactivity on the DNA oligomers compared with other compounds” value (shortened to “reactivity … compared with other compounds”) in experiment [1] was “extremely poorer when compared with Compound 1”. In addition, the “alkylation of DNA oligomer” value in experiment [1] (after 17 hours) was determined as 13%.

Consider ImPyDu86, for which, in experiment [2], the “mean IC50 values” is given as −5.95.

As for AcImImPyPy-γ-ImPyPyLDu86 [Compound 15], the “sequence-specific alkylation of pUC-II DNA” value in the experiment with long chain DNA (pUC-II) is recorded as “sequence-specific alkylation was observed at 5′-TGACCA-3′”.

As to ImPyDu, in experiment [2], the “mean IC50 values” is recorded as −4.59.

In the case of ImPyPyLDu86, the “change of cytostatic activity due to the vinyl linker between polyamide and Du86” value (from here on “change of cytostatic activity due”) in experiment [2] is on record as “dramatic increase in the cytostatic activity”.

As for `COC(=O)C1=C(C)CC2=C1[C@@]13C[C@@H]1CN(C(=O)/C=C/c1cc(NC(=O)c4nc(NC(=O)CCCNC(=O)c5cc(NC(=O)c6cc(NC(=O)c7nc(NC(C)=O)cn7C)cn6C)cn5C)cn4C)cn1C)C3=CC2=O` [Compound 13, AcImPyPy-γ-ImPyLCPI], the “consumption of starting DNA” value with long chain DNA (pUC-I′) (100 nM (lane 9), 24 hours) was “disappearance of almost all starting DNA”. Moreover, in the experiment with long chain DNA (pUC-I′) (24 hours), the “sequence-specific alkylation of long chain DNA” value was “reacted at A in the GTCAG sequence of the site 3”. Moreover, the “alkylation after short reaction time” value with DNA fragment (pUC-I′) (5 minutes) is recorded as “caused the alkylation”. Also, the “reactivity … compared with other compounds” value in experiment [1] is recorded as “dramatically increased reactivity”. For the same molecule, the “alkylation of DNA oligomer” value in experiment [1] (after 5 minutes) is recorded as 75%. Besides, in experiment [3], the “mRNA produced by transcription inhibition due to alkylation of the adenine in the 387 nt position” value is reported as “observed successfully”.

Turning to ImPyLDu86, the “mean IC50 values” in experiment [2] was −8.25. In experiment [4], the “alkylation induced, share of the compound employed” value was 70%.

With PyPyLDu86, the “change of cytostatic activity due” value in experiment [2] is given as “dramatic increase in the cytostatic activity”.

Consider PyPyPyLDu86, for which, in experiment [2], the “change of cytostatic activity due” value is listed as “dramatic increase in the cytostatic activity”.

For the molecule `COC(=O)c1c(C)[nH]c2c1[C@@]13C[C@@H]1CN(C(=O)/C=C/c1cc(NC(=O)c4cc(NC(=O)c5nc(NC(=O)CCCNC(=O)c6cc(NC(=O)c7cc(NC(=O)c8nc(NC(C)=O)cn8C)cn7C)cn6C)cn5C)cn4C)cn1C)C3=CC2=O` [Compound 14, AcImPyPy-γ-ImPyPyLCPI], in the experiment on long chain DNA (pUC-I′) (24 hours), the “sequence-specific alkylation of long chain DNA” value was “slightly reduced reactivity when compared with Compound 13”. The “reactivity … compared with other compounds” value in experiment [1] was “almost equivalent to Compound 1 and poorer than Compound 13”. For the same molecule, the “alkylation of DNA oligomer” value in experiment [1] (after 2 hours) is given as 46%. In addition, in the experiment on long chain DNA (pUC-II), the “sequence-specific alkylation of pUC-II DNA” value is “sequence-specific alkylation was observed at 5′-TGACCA-3′; also recorded: reactivity is far lower than those of Compounds 15 and 16”.

In the case of `COC(=O)c1c(C)[nH]c2c1[C@@]13C[C@@H]1CN(C(=O)/C=C/c1cc(NC(=O)c4cc(NC(=O)c5nc(NC(=O)CCNC(=O)c6cc(NC(=O)c7cc(NC(=O)c8nc(NC(=O)c9nccn9C)cn8C)cn7C)cn6C)cn5C)cn4C)cn1C)C3=CC2=O` [Compound 16, H-ImImPyPy-γ-ImPyPyLCPI], in the experiment with long chain DNA (pUC-II), the “sequence-specific alkylation of pUC-II DNA” value is “sequence-specific alkylation was observed at 5′-TGACCA-3′”.

Turning to `COC(=O)[C@]1(C)NC2=C(C1=O)[C@@]13C[C@@H]1CN(C(=O)c1cc(NC(=O)c4cc(NC(=O)c5nc(NC(=O)CCCNC(=O)c6cc(NC(=O)c7cc(NC(=O)c8nc(NC(C)=O)cn8C)cn7C)cn6C)cn5C)cn4C)cn1C)C3=CC2=O` [Compound 1, ImPyPy-γ-ImPyPyDu], the “sequence-specific alkylation of long chain DNA” value in the experiment on long chain DNA (pUC-I′) (24 hours) is listed as “reacted selectively at G in the 5′-GTCAG-3′ sequence in Site 3”. In the experiment with DNA fragment (pUC-I′) (one hour), the “alkylation after short reaction time” value is reported as “no reaction”. Besides, in experiment [5], the “reaction efficiency of sequence-specific DNA alkylation” value is 7% and the “time for sequence-specific alkylation of DNA to complete” value is listed as at least 1 week.
